Laboratory results: ChEMBL document CHEMBL1201862, “PubChem BioAssay data set” (2004)
Active and inactive are the calls of the source.

Experiments:
[1] = biological target: T1, Nucleotide-binding oligomerization domain-containing protein 1 (Homo sapiens, UniProt Q9Y239); assay: SAR analysis of NF-kappaB dependent luciferase using DAP as an inducer - Set 2. [Related pubchem assays (depositor defined):AID1566, AID1575, AID1578, AID1579, AID1849, AID1852, AID2264]; assay type: functional
T1 sequence (Q9Y239 whole entry): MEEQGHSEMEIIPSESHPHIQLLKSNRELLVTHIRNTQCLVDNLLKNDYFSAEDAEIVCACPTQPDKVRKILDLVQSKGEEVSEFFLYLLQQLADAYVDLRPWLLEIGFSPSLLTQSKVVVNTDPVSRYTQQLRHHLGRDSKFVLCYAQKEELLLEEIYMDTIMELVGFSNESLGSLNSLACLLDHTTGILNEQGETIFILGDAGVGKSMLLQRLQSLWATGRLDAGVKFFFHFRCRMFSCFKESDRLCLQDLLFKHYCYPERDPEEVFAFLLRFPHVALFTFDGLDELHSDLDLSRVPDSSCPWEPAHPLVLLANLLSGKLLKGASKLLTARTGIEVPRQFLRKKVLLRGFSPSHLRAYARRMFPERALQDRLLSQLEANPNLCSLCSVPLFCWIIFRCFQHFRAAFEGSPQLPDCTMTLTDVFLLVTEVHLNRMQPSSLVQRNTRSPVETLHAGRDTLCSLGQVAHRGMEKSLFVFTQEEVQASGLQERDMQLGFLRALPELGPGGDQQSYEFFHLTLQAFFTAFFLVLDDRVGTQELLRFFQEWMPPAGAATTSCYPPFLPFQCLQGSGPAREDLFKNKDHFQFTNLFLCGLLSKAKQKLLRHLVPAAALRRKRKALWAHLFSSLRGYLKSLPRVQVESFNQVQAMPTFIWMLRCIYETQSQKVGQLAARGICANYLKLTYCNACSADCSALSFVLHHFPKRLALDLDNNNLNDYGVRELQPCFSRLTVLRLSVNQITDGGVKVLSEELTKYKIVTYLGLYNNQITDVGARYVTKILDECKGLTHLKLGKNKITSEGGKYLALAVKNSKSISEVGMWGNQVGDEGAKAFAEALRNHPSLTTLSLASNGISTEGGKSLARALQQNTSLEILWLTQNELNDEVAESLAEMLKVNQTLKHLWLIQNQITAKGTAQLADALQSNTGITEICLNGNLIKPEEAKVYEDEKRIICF

[2] = biological target: T1, Nucleotide-binding oligomerization domain-containing protein 1; assay: SAR analysis of compounds that inhibit NOD1 - Set 3. [Related pubchem assays (depositor defined):AID1566, AID1575, AID1578, AID1849, AID1852, AID2333, AID2335, AID2466]; assay type: functional
[3] = biological target: T2, Nucleotide-binding oligomerization domain-containing protein 2 (Homo sapiens, UniProt Q9HC29); assay: NOD2 inhibitors, SAR follow-up, set 2 (AID 2475); assay type: functional
HEK293 [4] = assay: SAR analysis of compounds that are cytotoxic to HEK293 - Set 3. [Related pubchem assays (depositor defined):AID1575, AID1578, AID1848, AID1849, AID2001, AID2333, AID2334, AID2335, AID2337, AID2469]; assay type: functional, cell-based; settings: Homo sapiens
HEK293 [5] = assay: SAR analysis of compounds that are cytotoxic to HEK293 - Set 2. [Related pubchem assays (depositor defined):AID1575, AID1578, AID1849, AID2001, AID2333, AID2334, AID2335, AID2337, AID2800]; assay type: functional, cell-based; settings: Homo sapiens
Interleukin-8 [6] = biological target: T3, Interleukin-8 (Homo sapiens, UniProt P10145); assay: SAR analysis of GM-Tri-DAP induced IL-8 secretion in MCF-7/NOD1 cells - Set 2. [Related pubchem assays (depositor defined):AID1575, AID1578, AID2333]; assay type: functional, cell-based
T3 sequence (P10145 whole entry): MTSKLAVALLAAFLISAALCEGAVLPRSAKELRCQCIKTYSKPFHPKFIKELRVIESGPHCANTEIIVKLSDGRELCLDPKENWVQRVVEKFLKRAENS

Tumor necrosis factor = Tumor necrosis factor (Homo sapiens, UniProt P01375); assay: TNFa-triggered NF-kB activation inhibitors, SAR follow-up, cell-based, set 3 (AID 2801); assay type: functional
[7] = biological target: T1, Nucleotide-binding oligomerization domain-containing protein 1; assay: SAR analysis of compounds that inhibit NOD1 - Set 2. [Related pubchem assays (depositor defined):AID1566, AID1575, AID1578, AID1849, AID1852, AID2333, AID2335, AID2798]; assay type: functional
Interleukin-8 [8] = biological target: T3, Interleukin-8; assay: SAR analysis of Tumor necrosis factor alpha (TNF-alpha) induced IL-8 secretion in MCF-7/NOD1 cells - Set 2. [Related pubchem assays (depositor defined):AID1575, AID2250, AID2260]; assay type: functional, cell-based
[9] = biological target: T2, Nucleotide-binding oligomerization domain-containing protein 2; assay: NOD2 signaling inhibitors, analog potency, SAR follow-up, cell-based, set 3 (AID 2799); assay type: functional
Estrogen receptor beta [10] = biological target: T4, Estrogen receptor beta (Homo sapiens, UniProt Q92731); assay: ERβ–SRC-3 coactivator interaction inhibitors, confirmation, orthogonal assay, biochemical, ELISA, streptavidin-HRP readout (AID 1060)
Bcl-2-like protein 10 = Bcl-2-like protein 10 (Homo sapiens, UniProt Q9HD36); assay: displacers of TR3 peptide from Bcl-B, primary screen, selectivity assay for Bfl-1 inhibitor project, biochemical, fluorescence polarization, FITC-TR3 peptide (AID 748);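 note: fluorescence polarization from a fluorescein-labelled TR3 peptide binding purified Bcl-B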
Estrogen receptor beta [11] = biological target: T4, Estrogen receptor beta
Vibrio harveyi [12] = assay: Quorum Sensing, LuxS, LuxPQ Measured in Microorganism System Using Plate Reader - 2035-01_Inhibitor_DoseNoFile_DryPowder_Activity. [Related pubchem assays (depositor defined):AID2106]; assay type: functional, organism-based
Vibrio harveyi [13] = assay: inhibitors of AI-2 quorum sensing in V. harveyi, dose response, LuxS, LuxPQ, dry powder, set 2 (AID 493072); assay type: functional, organism-based
Protein Rev = Protein Rev (Human immunodeficiency virus type 1 group M subtype B (isolate WMJ22)(HIV-1), UniProt P05866); assay: HIV-1 Rev-RRE RNA binding disruptors, dose response, biochemical, protein-RNA interaction (AID 842); design: species or system Human immunodeficiency virus 1
Wee1-like protein kinase = Wee1-like protein kinase (Homo sapiens, UniProt P30291); assay: G2/M cell cycle arrest in HeLa, late-stage follow-up, mechanism study for Wee1 degradation inhibitor project, FACS, panel member Wee1 Degradation (AID 2088)
[14] = biological target: G2/mitotic-specific cyclin-B1 (Homo sapiens, UniProt P14635); assay: G2/M cell cycle arrest in HeLa, late-stage follow-up, mechanism study for Wee1 degradation inhibitor project, FACS, panel member Cyclin B Degradation (AID 2088)
[15] = biological target: T5, Intestinal-type alkaline phosphatase (Homo sapiens, UniProt P09923); assay: Dose Response confirmation of uHTS hits from a small molecule inhibitors of human intestinal alkaline phosphatase via a luminescent assay. [Related pubchem assays (depositor defined):AID2544, AID2574]; assay type: functional
[16] = biological target: T5, Intestinal-type alkaline phosphatase; assay: human intestinal alkaline phosphatase activators, dose response, biochemical, luminescence, uHTS hits (AID 463120); assay type: functional

T2 sequence (Q9HC29 whole entry, the tested form may be a part): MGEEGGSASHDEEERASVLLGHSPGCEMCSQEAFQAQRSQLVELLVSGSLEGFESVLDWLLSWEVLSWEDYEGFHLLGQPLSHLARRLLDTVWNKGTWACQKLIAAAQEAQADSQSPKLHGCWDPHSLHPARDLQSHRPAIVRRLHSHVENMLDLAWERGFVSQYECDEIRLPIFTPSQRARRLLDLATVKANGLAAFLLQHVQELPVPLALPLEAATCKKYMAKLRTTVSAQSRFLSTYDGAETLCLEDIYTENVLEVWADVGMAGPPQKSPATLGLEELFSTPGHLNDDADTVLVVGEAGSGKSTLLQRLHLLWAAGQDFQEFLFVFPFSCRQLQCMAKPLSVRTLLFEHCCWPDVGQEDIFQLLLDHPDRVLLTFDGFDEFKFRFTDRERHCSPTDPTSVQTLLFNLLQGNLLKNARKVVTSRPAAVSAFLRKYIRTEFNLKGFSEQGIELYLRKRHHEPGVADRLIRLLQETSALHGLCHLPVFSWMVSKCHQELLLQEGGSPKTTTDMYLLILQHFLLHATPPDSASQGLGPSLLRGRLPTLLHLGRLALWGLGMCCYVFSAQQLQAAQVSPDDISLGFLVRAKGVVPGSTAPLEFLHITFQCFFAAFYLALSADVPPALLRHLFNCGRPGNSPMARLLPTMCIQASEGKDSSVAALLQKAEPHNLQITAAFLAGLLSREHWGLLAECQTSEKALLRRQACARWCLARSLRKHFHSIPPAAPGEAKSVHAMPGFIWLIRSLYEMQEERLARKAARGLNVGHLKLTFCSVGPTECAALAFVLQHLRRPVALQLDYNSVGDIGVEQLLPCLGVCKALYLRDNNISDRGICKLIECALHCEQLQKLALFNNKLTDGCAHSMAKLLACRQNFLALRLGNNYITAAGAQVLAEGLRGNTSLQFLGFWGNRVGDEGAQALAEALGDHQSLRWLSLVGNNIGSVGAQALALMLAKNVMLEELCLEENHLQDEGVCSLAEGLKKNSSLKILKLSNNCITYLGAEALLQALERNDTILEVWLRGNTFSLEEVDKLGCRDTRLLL
T4 sequence (Q92731 whole entry): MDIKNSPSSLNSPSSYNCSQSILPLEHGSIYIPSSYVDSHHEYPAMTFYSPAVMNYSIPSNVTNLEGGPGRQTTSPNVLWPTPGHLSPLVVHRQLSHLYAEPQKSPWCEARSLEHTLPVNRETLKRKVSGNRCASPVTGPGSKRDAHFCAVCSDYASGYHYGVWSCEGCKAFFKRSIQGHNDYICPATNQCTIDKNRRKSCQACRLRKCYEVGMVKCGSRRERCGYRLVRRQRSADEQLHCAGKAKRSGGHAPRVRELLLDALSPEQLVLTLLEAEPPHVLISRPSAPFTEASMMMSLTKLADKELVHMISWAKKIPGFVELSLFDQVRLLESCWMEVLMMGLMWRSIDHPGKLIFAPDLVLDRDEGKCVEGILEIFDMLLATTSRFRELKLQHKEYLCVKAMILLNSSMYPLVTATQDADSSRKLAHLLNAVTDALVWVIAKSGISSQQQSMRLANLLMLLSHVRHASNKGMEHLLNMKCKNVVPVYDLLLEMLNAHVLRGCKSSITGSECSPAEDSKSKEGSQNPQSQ
T5 sequence (P09923 whole entry): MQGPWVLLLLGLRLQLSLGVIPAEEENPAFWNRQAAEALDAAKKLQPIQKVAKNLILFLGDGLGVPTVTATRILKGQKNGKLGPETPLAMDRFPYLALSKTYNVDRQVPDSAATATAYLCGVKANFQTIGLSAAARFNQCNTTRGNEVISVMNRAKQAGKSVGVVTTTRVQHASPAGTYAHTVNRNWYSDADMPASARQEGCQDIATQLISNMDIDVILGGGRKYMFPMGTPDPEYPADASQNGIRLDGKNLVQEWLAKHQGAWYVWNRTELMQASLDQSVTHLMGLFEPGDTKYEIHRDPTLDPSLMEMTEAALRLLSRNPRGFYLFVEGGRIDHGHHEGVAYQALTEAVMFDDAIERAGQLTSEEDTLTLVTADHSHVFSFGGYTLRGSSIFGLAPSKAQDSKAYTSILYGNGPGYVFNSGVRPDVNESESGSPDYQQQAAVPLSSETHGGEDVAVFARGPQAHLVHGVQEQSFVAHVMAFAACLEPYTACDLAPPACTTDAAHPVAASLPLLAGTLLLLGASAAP
Sequence of Bcl-2-like protein 10 (Q9HD36 whole entry): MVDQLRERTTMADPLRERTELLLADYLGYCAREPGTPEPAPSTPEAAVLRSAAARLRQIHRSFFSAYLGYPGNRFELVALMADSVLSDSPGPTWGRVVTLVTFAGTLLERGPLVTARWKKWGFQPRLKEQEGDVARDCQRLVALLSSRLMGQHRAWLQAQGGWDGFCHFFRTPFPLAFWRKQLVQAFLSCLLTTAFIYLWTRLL
Sequence of Wee1-like protein kinase (P30291 whole entry): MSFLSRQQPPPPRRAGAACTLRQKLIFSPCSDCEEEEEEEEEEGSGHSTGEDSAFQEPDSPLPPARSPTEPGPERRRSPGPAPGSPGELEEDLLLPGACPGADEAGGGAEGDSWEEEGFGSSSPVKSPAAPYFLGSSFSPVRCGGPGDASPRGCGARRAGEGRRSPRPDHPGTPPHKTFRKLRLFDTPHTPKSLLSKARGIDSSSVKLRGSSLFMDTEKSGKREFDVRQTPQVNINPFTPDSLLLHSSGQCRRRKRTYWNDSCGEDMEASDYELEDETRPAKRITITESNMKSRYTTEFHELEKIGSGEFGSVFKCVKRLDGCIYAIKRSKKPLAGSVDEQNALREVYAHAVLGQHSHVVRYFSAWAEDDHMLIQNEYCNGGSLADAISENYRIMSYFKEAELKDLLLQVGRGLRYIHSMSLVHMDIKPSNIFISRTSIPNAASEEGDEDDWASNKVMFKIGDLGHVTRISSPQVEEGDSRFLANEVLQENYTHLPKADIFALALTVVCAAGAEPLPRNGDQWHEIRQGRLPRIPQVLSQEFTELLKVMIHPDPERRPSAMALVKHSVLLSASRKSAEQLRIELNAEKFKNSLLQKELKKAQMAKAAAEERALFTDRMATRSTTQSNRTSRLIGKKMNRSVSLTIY
Sequence of Tumor necrosis factor (P01375 whole entry, the tested form may be a part): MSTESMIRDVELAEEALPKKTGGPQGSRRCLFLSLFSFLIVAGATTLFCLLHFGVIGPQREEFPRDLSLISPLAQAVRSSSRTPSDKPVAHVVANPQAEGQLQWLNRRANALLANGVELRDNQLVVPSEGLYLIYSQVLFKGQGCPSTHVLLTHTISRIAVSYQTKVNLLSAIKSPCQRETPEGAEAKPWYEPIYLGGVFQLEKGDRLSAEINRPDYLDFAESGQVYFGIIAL
Sequence of G2/mitotic-specific cyclin-B1 (P14635 whole entry): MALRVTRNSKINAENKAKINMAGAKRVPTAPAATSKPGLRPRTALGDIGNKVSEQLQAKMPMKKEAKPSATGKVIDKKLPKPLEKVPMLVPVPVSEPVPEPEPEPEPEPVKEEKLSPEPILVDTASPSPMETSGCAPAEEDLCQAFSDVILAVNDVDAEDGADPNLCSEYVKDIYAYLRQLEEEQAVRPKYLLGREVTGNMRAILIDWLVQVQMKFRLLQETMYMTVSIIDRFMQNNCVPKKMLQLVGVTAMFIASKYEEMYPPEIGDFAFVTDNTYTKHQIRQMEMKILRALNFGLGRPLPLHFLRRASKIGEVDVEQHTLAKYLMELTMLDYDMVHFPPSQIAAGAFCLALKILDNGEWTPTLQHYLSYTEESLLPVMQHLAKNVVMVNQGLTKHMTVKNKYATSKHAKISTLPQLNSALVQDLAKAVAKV
Sequence of Protein Rev (P05866 whole entry): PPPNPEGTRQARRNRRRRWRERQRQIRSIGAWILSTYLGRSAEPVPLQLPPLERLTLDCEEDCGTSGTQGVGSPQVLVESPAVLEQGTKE

Q: How did the IC50 [1] turn out when C=CCn1c(SCCCc2ccccc2)nc2c1c(=O)[nH]c(=O)n2C was run?
A: The IC50 was > 25 µM (inactive).

Q: What about the IC50 [2] of the same compound?
A: Its IC50 is > 20 µM (inactive).

Q: What about the IC50 [3] of the same compound?
A: Its IC50 is 14.8 µM (active).

Q: And the IC50 (HEK293 [4])?
A: Its IC50 is > 20 µM (inactive).

Q: What about the IC50 (HEK293 [5]) of the same compound?
A: Its IC50 is > 20 µM (inactive).

Q: What about the IC50 (Interleukin-8 [6]) of the same compound?
A: The IC50 was > 25 µM (inactive).

Q: What about the IC50 (Tumor necrosis factor) of the same compound?
A: The IC50 was > 20 µM (inactive).

Q: What about the IC50 [7] of the same compound?
A: The IC50 was 9.33 µM (active).

Q: What about the IC50 (Interleukin-8 [8]) of the same compound?
A: The IC50 was > 25 µM (inactive).

Q: And the IC50 [9]?
A: The IC50 was > 20 µM (inactive).

Q: For Cc1ccc(S(=O)(=O)Cc2ccc(C(=O)N3CCc4ccccc4C3)o2)cc1, which IC50 (Estrogen receptor beta [10]) is on record?
A: The IC50 was < 0.023 µM (not active).

Q: What about the IC50 (Bcl-2-like protein 10) of the same compound?
A: The IC50 was 20.5 µM (active).

Q: And the IC50 (Estrogen receptor beta [11])?
A: Its IC50 is 4.88 µM (active).

Q: Cn1cnc(S(=O)(=O)Nc2ccc(OC(F)(F)F)cc2)c1 was tested. Which AC50 (Vibrio harveyi [12]) did it give?
A: Its AC50 is 3.13 µM (active).

Q: What about the AC50 (Vibrio harveyi [13]) of the same compound?
A: Its AC50 is 4.67 µM (active).

Q: What about the AC50 (Vibrio harveyi [13]; Vibrio harveyi) of the same compound?
A: The AC50 was 5.06 µM (active).

Q: How did the IC50 (Protein Rev) turn out when COc1ccc(C2N=C(N)N=C(N)N2c2ccc(C)cc2)cc1 (stereo unspecified) was run?
A: The IC50 was > 79.4 µM (not active).

Q: What does the source list for CCOC(=O)c1cccc(NC(=O)CCCOc2cc(=O)n(C)c3ccccc23)c1?
A: EC50 (Wee1-like protein kinase): > 49.7 µM (inactive); EC50 [14]: > 49.7 µM (inactive)

Q: With COc1ccc(CC2CC(=O)N(c3ccc(C)cc3)C2=O)cc1 (stereo unspecified) as the compound, how does the IC50 [15] read?
A: The IC50 was > 100 µM (inactive).

Q: What about the EC50 [16] of the same compound?
A: The EC50 was > 100 µM (inactive).
